Measurements reported in patent US10376475B2, “Method of use” (Dermavant Sciences GmbH, priority 2014, dated 2019).
Like-named read-outs stand apart in the source and are kept apart here.

Tests used:
IL-17 = IL-17 secretion by pre-existing (differentiated) Th17 polarized cells after TCR stimulus
IL-17A [1] = test: IL-17A protein secretion by peripheral blood CD4+ T cells cultured under Th17 polarizing conditions (Magpix); assay type: cell-based; conditions: 5 days of culture, titrating doses
Procedure: To further understand the active dose range of compound 1-mediated suppression of Th17-associated cytokines, IL-17A protein secretion was examined in peripheral blood CD4+ T cells following 5 days of culture under Th17 polarizing conditions in the presence or absence of titrating doses of Compound 1 (FIG. 2). Supernatants were harvested at the end of the culture period and secreted protein was analyzed by Magpix (magnetic-based Luminex technology).

IL-17A [2] = assay type: cell-based
[3] = test system: human immortalized sebocytes; test: Sebocyte lipogenesis assay (14C-acetate); assay type: cell-based; conditions: 10, 3, 1, 0.3 and 0.1 μM
Procedure: Briefly, human immortalized sebocytes (tsSV40 and hTERT) were seeded and allowed to grow to confluence in Sebocyte Growth Medium. Upon confluence, cells were transferred to […] to initiate Large T antigen degradation. Two days later, cells were stimulated with Sebocyte Labeling Medium containing 1 μM T0901317 and vehicle (DMSO) or compound 1. […] Next day, the media was replaced with Sebocyte Labeling Medium containing 1 μM T0901317 and original treatments or vehicle plus 1 μM insulin. 2 ul of 14C-acetate was added per well and the plate incubated for 4 hours. After 2 hours of incubation, 10 ul of CTB reagent was added per well for normalization. Incubation was continued for the remaining 2 hours and plates were read at Ex. 560 Em.590 for CTB signal. Cells were then washed, trypsinized and transferred to glass vials for lipid extraction. The results are expressed as % lipid production relative to control (LXR+Insulin group).
FIG. 4, the data represent % inhibition relative to control (LXR+Insulin group). Data are represented as Mean±SEM. Data are from 3 replicates.

[4] = test system: primary human keratinocytes; test: Keratinocyte viability (annexin V / propidium iodide flow cytometry); assay type: cell-based; conditions: 10 and 30 uM, 48 hours
Procedure: Keratinocyte hyperproliferation increases blockage and can promote comedome formation in acne. […] The ability of Compound 1 to induce apoptosis in primary keratinocytes may contribute to efficacy in acne patients.
Primary human keratinocytes were cultured in EpiLife medium containing HKGS growth supplement and seeded in tissue culture plates at 250,000 cells per plate. On the next day, the culture medium was removed and keratinocytes were then treated with culture medium containing vehicle control (DMSO) or increasing concentrations of Compound 1 (1, 10, 30 uM). After 48 hours of culture, keratinocytes were removed from tissue culture plates and cell viability was assessed by staining for apoptotic markers (annexin V and propidium iodide) using flow cytometry.

P. acnes = test: MIC against P. acnes on supplemented Brucella blood agar (CLSI); assay type: cell-based, Propionibacterium acnes
Procedure: Bacterial strains utilized to evaluate this concept of antibacterial synergy were the clinical isolates P. acnes 6601, 6602, AN24, 100372, and reference strain ATCC6919. These were received from the internal culture GSK collection held by the Infectious Disease CEDD at the Upper Providence site. Bacteria inocula were prepared, and the determination of the minimal inhibitory concentration (MIC) were conducted on supplemented Brucella blood agar as described for the CLSI guideline method (Bhate, K. et al. Brit. J. Derm. 168:474-485, 2013). Briefly, diluted antibacterials were added to tempered molten agar and aseptically poured into petri dishes and allowed to solidify. Following 24-hours incubation in an anaerobic environment bacterial colonies were suspended and adjusted for turbidity equivalent to a 0.5 MacFarland standard. One-two microliters of inoculums were placed on each antibiotic containing agar plate and allowed to absorb for 30 min. Plates were then inverted and incubated anaerobically for 48-72 hours before observation for growth. The lowest drug concentration which inhibited bacterial growth was designated as the MIC.

[5] = mouse ear edema; cited from earlier work
primary human cell types = test: BioMAP Diversity Plus System profile comparison; conditions: 148 phenotypic readouts, at one or more test concentration

## Oc1ccc(C=Cc2cc(O)cc(O)c2)cc1 [Resveratrol]
IL-17; 30 μM
  effect on IL-17: partial inhibition
IL-17; lower concentrations (below 30 μM)
  effect on IL-17: enhancement

## CC(C)c1c(O)cc(/C=C/c2ccccc2)cc1O [Compound 1]
IL-17A [1]
  IL-17A protein levels: suppressed by compound 1 in a dose-dependent manner
IL-17A [2]; 100 nM
  suppression of IL-17 secretion: more than 60%
IL-17A [2]; 10 μM
  reduction of IL-17: approximately 80%
IL-17A [2]; normalized to PPIB, 5-day culture
  IL-17A mRNA expression: inhibited IL-17A mRNA expression in parallel and at the same potency as secretion of IL-17 protein
[3]
  lipogenesis relative to control (LXR+Insulin group): not active
[3]; listed as compound 1
  lipogenesis relative to control (LXR+Insulin group): trends towards increased lipogenesis
[4]
  keratinocyte viability / cytotoxicity: overtly cytotoxic
P. acnes; Cutibacterium acnes, P. acnes reference strain ATCC6919, read-out: MIC
  MIC: 128 µg/mL
P. acnes; Cutibacterium acnes, all P. acnes strains tested, read-out: MIC
  MIC: 128 µg/mL
P. acnes; P. acnes strain 6601
  MIC: 128 µg/mL
P. acnes; P. acnes strain 6602
  MIC: 128 µg/mL
P. acnes; P. acnes strain 100372
  MIC: 128 µg/mL
P. acnes; P. acnes strain AN24
  MIC: 128 µg/mL
P. acnes; judgement based on MIC results
  antibacterial activity against P. acnes: would not be considered to be active
[5]
  skin redness and thickness: dose dependent reduction in both skin redness and thickness
Primary human cell types
  number of biomarkers modulated: more than 25
IL-17; 30 μM, 24 hours
  reduction of IL-17 levels relative to stimulus alone: 80-95%
